Laboratory results reported in the supplement of paper PMC8671470.

Key:
Settings in all cases: 72 h
[1] = system: myeloid leukemia patient primary cells Pat.13; assay: area under dose-response curve (viability, 1 nM-10 uM) (fraction (0-1)); higher = more sensitive
Experimental: (§1)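 AUC (0–1, higher = more sensitive) of the 5-point dose–response (1 nM–10 µM, 72 h, CellTiter-Glo) in primary AML/CML patient mononuclear cells. 0.030103 is the floor for inactive compounds.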

[2] = system: myeloid leukemia patient primary cells Pat.8; assay: as above
Experimental: as §1

[3] = system: myeloid leukemia patient primary cells Pat.3; assay: as above
Experimental: as §1

[4] = system: myeloid leukemia patient primary cells Pat.9; assay: as above
Experimental: as §1

[5] = system: myeloid leukemia patient primary cells Pat.10; assay: as above
Experimental: as §1

[6] = system: myeloid leukemia patient primary cells Pat.1; assay: as above
Experimental: as §1

[7] = system: myeloid leukemia patient primary cells Pat.15; assay: as above
Experimental: as §1

[8] = system: myeloid leukemia patient primary cells Pat.11; assay: as above
Experimental: as §1

[9] = system: myeloid leukemia patient primary cells Pat.6; assay: as above
Experimental: as §1

[10] = system: myeloid leukemia patient primary cells Pat.7; assay: as above
Experimental: as §1

[11] = system: myeloid leukemia patient primary cells Pat.2; assay: as above
Experimental: as §1

[12] = system: myeloid leukemia patient primary cells Pat.4; assay: as above
Experimental: as §1

[13] = system: myeloid leukemia patient primary cells Pat.12; assay: as above
Experimental: as §1

[14] = system: myeloid leukemia patient primary cells Pat.14; assay: as above
Experimental: as §1

[15] = system: myeloid leukemia patient primary cells Pat.5; assay: as above
Experimental: as §1

MV4-11 = assay: cell viability (% survival relative to DMSO control); higher = less cytotoxic
Experimental: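 8x8 drug-combination matrices (0–5000 nM; rosiglitazone and lestaurtinib 0–1000 nM) were run in MV4-11 cells for 72 h with CellTiter-Glo read-out. Survival is normalised to DMSO and 10 µM bortezomib and clipped at 100%.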

Cc1c2c(=O)n(-c3ccccc3Cl)[nH]c2cc(=O)n1Cc1ccccn1
Settings	area under dose-response curve
[1]	< 0.0301
[2]	< 0.0301
[3]	< 0.0301
[4]	< 0.0301
[5]	0.0358
[6]	< 0.0301
[7]	< 0.0301
[8]	< 0.0301
[9]	< 0.0301
[10]	< 0.0301
[11]	< 0.0301
[12]	< 0.0301
[13]	< 0.0301
[14]	< 0.0301

O=c1cc(N2CCOCC2)oc2c(-c3ccccc3)cccc12
Settings	area under dose-response curve
[1]	0.0372
[3]	< 0.0301
[4]	0.736
[5]	0.771
[6]	0.14
[7]	0.136
[8]	0.0446
[9]	< 0.0301
[10]	< 0.0301
[11]	0.0446
[12]	0.18
[13]	< 0.0301
[14]	0.0381
[15]	0.782

O=C1C(SCCO)=C(SCCO)C(=O)c2ccccc21
Settings	area under dose-response curve
[1]	0.147
[2]	0.174
[3]	0.33
[4]	0.455
[6]	0.378
[7]	0.444
[8]	0.355
[9]	0.187
[10]	0.45
[11]	0.234
[12]	0.354
[13]	0.385
[14]	0.421
[15]	0.455

Cn1cc(-c2ccncc2)c(-c2ccc(OCc3ccc4ccccc4n3)cc2)n1
Settings	area under dose-response curve
[1]	0.067
[2]	< 0.0301
[3]	0.219
[4]	0.694
[5]	0.163
[6]	< 0.0301
[7]	< 0.0301
[8]	< 0.0301
[10]	0.309
[11]	< 0.0301
[12]	< 0.0301
[13]	< 0.0301
[14]	0.183
[15]	0.938

O=C(O)CC[N+](=O)[O-] [3-nitropropionic acid]
Settings	area under dose-response curve
[1]	0.0548
[2]	< 0.0301
[3]	0.133
[4]	0.148
[5]	0.0892
[6]	0.0529
[7]	0.123
[8]	< 0.0301
[9]	0.0437
[10]	0.058
[12]	0.113
[13]	0.0457
[14]	0.112
[15]	0.168

O=C(O)CC[N+](=O)[O-] [3-nitropropionic acid] + CCn1c(=Cc2cccc[n+]2CC)sc(=C2Sc3ccccc3N2C)c1=O [MKT 077]
cell viability [%], MV4-11
Settings	drug1 concentration 5 nM	drug1 concentration 10 nM	drug1 concentration 50 nM	drug1 concentration 100 nM	drug1 concentration 500 nM	drug1 concentration 1000 nM	drug1 concentration 5000 nM
drug2 concentration 5 nM	89.1	97	> 100	86.8	> 100	> 100	75.6
drug2 concentration 10 nM	89.2	> 100	> 100	83.7	98.1	> 100	> 100
drug2 concentration 50 nM	> 100	> 100	> 100	84.1	> 100	81.3	> 100
drug2 concentration 100 nM	97.3	> 100	93.7	84.3	> 100	88.2	68.4
drug2 concentration 500 nM	> 100	96	92.7	> 100	94.3	91.4	86.1
drug2 concentration 1000 nM	89.6	97.4	92.8	> 100	97.6	> 100	65.1
drug2 concentration 5000 nM	72.5	80	96.6	> 100	87.2	97.2	79.8

Cc1[nH]nc(C(F)(F)F)c1Cc1sc2c(c1C(=O)N1C[C@](C)(O)CO1)c(=O)n(C)c(=O)n2C(C)C [AZD3965]
Settings	area under dose-response curve
[1]	< 0.0301
[2]	< 0.0301
[3]	< 0.0301
[4]	< 0.0301
[5]	0.167
[6]	< 0.0301
[7]	< 0.0301
[8]	< 0.0301
[9]	< 0.0301
[10]	< 0.0301
[11]	< 0.0301
[12]	< 0.0301
[13]	< 0.0301
[14]	< 0.0301
[15]	0.149

O=C(/C=C/c1ccc(O)c(O)c1)OCCc1ccccc1 [Caffeic acid phenethyl ester]
Settings	area under dose-response curve
[1]	0.082
[2]	0.297
[3]	0.467
[4]	0.563
[5]	0.539
[6]	0.155
[7]	0.145
[8]	0.14
[9]	0.168
[10]	0.323
[12]	0.328
[13]	0.201
[14]	0.242
[15]	0.411

CCN(CC)C(=S)SSC(=S)N(CC)CC [Disulfiram]
Settings	area under dose-response curve
[1]	0.412
[2]	0.503
[3]	0.164
[4]	0.257
[6]	0.398
[7]	0.623
[8]	0.374
[9]	0.414
[10]	0.153
[11]	0.512
[12]	0.373
[13]	0.485
[14]	0.19
[15]	0.303

c1cc(-c2cnn3cc(-c4ccc(OCCN5CCCCC5)cc4)cnc23)ccn1 [Dorsomorphin]
Settings	area under dose-response curve
[1]	0.195
[3]	0.0457
[4]	0.488
[5]	0.342
[6]	0.142
[7]	0.0705
[8]	0.106
[9]	< 0.0301
[10]	0.0504
[11]	< 0.0301
[12]	0.182
[13]	< 0.0301
[14]	< 0.0301
[15]	0.508

CO[C@H]1C[C@@H]2CC[C@@H](C)[C@@](O)(O2)C(=O)C(=O)N2CCCC[C@H]2C(=O)O[C@H]([C@H](C)C[C@@H]2CC[C@@H](OCCO)[C@H](OC)C2)CC(=O)[C@H](C)/C=C(\C)[C@@H](O)[C@@H](OC)C(=O)[C@H](C)C[C@H](C)/C=C/C=C/C=C/1C [Everolimus]
Settings	area under dose-response curve
[1]	0.0367
[2]	< 0.0301
[3]	0.746
[4]	0.319
[5]	0.604
[6]	0.122
[7]	0.625
[8]	< 0.0301
[9]	0.0682
[10]	0.139
[11]	0.0353
[12]	0.413
[13]	< 0.0301
[14]	0.177
[15]	0.808

Cc1cc2c(C(C)C)c(O)c(O)c(C=O)c2c(O)c1-c1c(C)cc2c(C(C)C)c(O)c(O)c(C=O)c2c1O [Gossypol]
Settings	area under dose-response curve
[1]	0.107
[2]	0.123
[3]	0.428
[4]	0.803
[5]	0.641
[6]	0.135
[7]	0.0654
[8]	0.135
[9]	0.0898
[10]	0.476
[11]	0.112
[12]	0.117
[13]	0.0353
[14]	0.386
[15]	0.712

CCn1c(=Cc2cccc[n+]2CC)sc(=C2Sc3ccccc3N2C)c1=O [MKT 077] + CN(C)CCNC(=O)c1cccn2c(=O)c3cc4ccccc4cc3nc12 [Bmh-21]
cell viability [%], MV4-11
Settings	drug1 concentration 5 nM	drug1 concentration 10 nM	drug1 concentration 50 nM	drug1 concentration 100 nM	drug1 concentration 500 nM	drug1 concentration 1000 nM	drug1 concentration 5000 nM
drug2 concentration 5 nM	89	81.4	> 100	87.9	90.8	> 100	78.7
drug2 concentration 10 nM	97.1	> 100	> 100	99.1	86	71	> 100
drug2 concentration 50 nM	86.2	86.7	88.4	> 100	84.5	> 100	> 100
drug2 concentration 100 nM	> 100	> 100	92.3	95.9	89.4	69.7	> 100
drug2 concentration 500 nM	70.6	88.8	78.3	87.8	> 100	86.7	84.5
drug2 concentration 1000 nM	87.2	46.6	> 100	89.9	74.8	60.5	64.2
drug2 concentration 5000 nM	31.1	35.2	31.4	63.2	25.9	24.1	37.5
